Data set [1] concerns human genomic DNA. The experiment in a line: Agarose gel electrophoresis of human genomic DNA treated with cATC derivatives. The data set is classed as binding. Conditions: 1% agarose gel; EtBr control. From the text:
Further, we examined the effect of cATC derivatives (6a/6e/6j/6n) on the ct-DNA duplex structure by circular dichroism (CD) studies. We recorded the CD spectra of ct-DNA with the increasing concentration of cATC derivatives (SM, Fig. S24). […] Next, we examined the binding site of cATC derivative (ligand) at the DNA duplex structure by using AutoDock-Vina, a well-reported computational docking program. We performed docking of cATC derivatives (6a/6d/6k) crystal structure (ligand) with dodecamer DNA duplex crystal structure (PDB ID-1BNA) as the receptor. Our docking results strongly support the non-covalent interaction of cATC derivatives (6a/6d/6k) at the DNA-minor groove with the binding affinity ~7.0 Kcal/mole, mostly hydrophobic interactions (SM, Figs. S25–7, Table S8). […] Overall, cATC derivatives non-covalently bind with DNA duplex through the non-intercalative mode without affecting the native duplex structure. Next, we examined the DNA binding affinity of cATC derivatives (6e/6j/6n) by gel-electrophoresis. The different concentrations of human genomic DNA were treated with EtBr (control) and cATC derivatives (6e/6j/6n) and ran on 1% agarose gel (SM, Fig. S28A–D). […] Further, the Microscale thermophoresis (MST) technique was used to calculate the binding affinities of cATC derivatives (6e/6j/6n) (20 µM) with varying concentrations of human genomic DNA (40 fM to 75 pM).

In data set [2] the test system is human genomic DNA. The experiment in a line: Microscale thermophoresis (MST) binding of cATC derivatives to human genomic DNA. To be noted: cATC derivative 20 µM, human genomic DNA 40 fM to 75 pM. From the text: Further, we examined the effect of cATC derivatives (6a/6e/6j/6n) on the ct-DNA duplex structure by circular dichroism (CD) studies. We recorded the CD spectra of ct-DNA with the increasing concentration of cATC derivatives (SM, Fig. S24). […] Next, we examined the binding site of cATC derivative (ligand) at the DNA duplex structure by using AutoDock-Vina, a well-reported computational docking program. We performed docking of cATC derivatives (6a/6d/6k) crystal structure (ligand) with dodecamer DNA duplex crystal structure (PDB ID-1BNA) as the receptor. Our docking results strongly support the non-covalent interaction of cATC derivatives (6a/6d/6k) at the DNA-minor groove with the binding affinity ~7.0 Kcal/mole, mostly hydrophobic interactions (SM, Figs. S25–7, Table S8). […]
DNA was isolated from 10 × 10^6 HeLa cells by QIAmp DNA mini Kit (Qiagen, Germany). cATC derivatives (6e, 6j, and 6n dissolved in a mixture of 1X PBS containing 1% DMSO) and DNA ranging from a concentration of 40 fM to 75pM (resuspended in 1X TE with 0.05% Tween-20), was used for analyzing the interaction of cATC derivatives with DNA. […] 15 µl of the above mixture was loaded in capillaries and binding affinity was measured using the NanoTemper instrument followed by analysis through NanoTemper analysis 1.2.231 software.

Data set [3] in a line: MTS cell viability assay in HEK293. The data set is classed as cell-based. Conditions: human, HEK293 cells, HEK293, 30 μM. The method, then: (§1) We investigated the effect of nine cATC derivatives (6b/6d/6e/6f/6i/6j/6k/6l/6n) on cell viability in cancer cell-line HeLa and transformed normal cell-line HEK293. We treated cells with the varying concentrations of the compounds ranging from 10 nM to 50 μM for 18 h (optimized).
(§2) MTS assay (CellTiter 96® AQueous One Solution Cell Proliferation Assay (Promega, USA) was used to determine the cell viability. HeLa and HEK293 cells (20,000 cells in each well) were plated in 96 well plate and treated with 6e, 6j, and 6n varying concentrations of the compounds ranging from 10 nM to 50 μM for 18 h. The assay was carried out according to the manufacturer’s instructions. Finally, the plate was read in Varioskan™ LUX multimode microplate reader (Thermo Fisher Scientific) at 490 nm.
(§3) Cell scavenging activity was calculated using the following formula:
(§4) OD(490nm) (control) – OD(490nm) (Test)/OD(490nm) (control) × 100%
(§5) Cell Viability of the cell was calculated using the following formula: […]

The subject of the next data set is HEK293 cells. The experiment in a line: MTS cell viability assay in HEK293. The data set is classed as cell-based. Conditions: HEK293, 30 μM, 18 h. The method, then:
as §1, §2, §3, §4, §5

In data set [4] the test system is HeLa cells. The experiment in a line: Apoptosis analysis, FITC Annexin V / PI flow cytometry. Conditions: IC50 concentration, 18 h. The format is cell-based. The method, then:
The apoptotic effect of 6e, 6j, and 6n compounds on cancer cells was detected using FITC Annexin V Apoptosis Detection Kit I (BD Pharmingen™, NJ, USA) according to the manufacturer’s protocol. 0.5 × 10^6 […] HeLa cells were seeded in a 6-well plate and treated with IC50 concentrations for 18 h. Harvested cells were incubated with Annexin V FITC and PI PE-conjugated antibody and apoptosis was evaluated using FACSCalibur (BD Biosciences, CA, USA) flow cytometry. Data were analyzed using CellQuest Pro software (BD Biosciences).
(In general: In flow cytometry, cells or beads pass a laser one at a time.)

In data set [5] the test system is p38-p53 pathway and EMT markers in HeLa cells. The experiment in a line: Western blot of p38-p53 pathway and EMT markers. The format is cell-based. How it is done:
In order to figure out the mechanism of apoptosis induction, we analyzed the effect of different concentrations of 6e (0 μM, 4 μM, 9 μM, 14 μM and 18 μM), 6j (0 μM, 5 μM, 10 μM, 15 μM and 19 μM), and 6n (0 μM, 5 μM, 10 μM, 15 μM and 19 μM) compounds on p38-p53 pathway.
Cell lysates were prepared from HeLa treated with compounds 6e, 6j, and 6n in ice-cold RIPA buffer (Thermo Scientific, USA), and supplemented with protease and phosphatase inhibitor cocktail (Thermo Scientific, USA). Protein quantification of cell lysates was done using BCA reagent (Thermo Scientific). 20 µg of protein samples were separated on a 12% SDS-PAGE and subsequently transferred onto a PVDF membrane (Merck Millipore, USA). The blots were probed with specific antibodies for p38 (1:1000, #9212, Cell Signaling Technology, USA), phospho-p38 (1:1000, #9211; Cell Signaling technology), p53 (1:1000, #9282, Cell signalling technology), phospho-p53 (1:1000, #9284, Cell Signaling technology), snail (1:1000, #C15D3, Cell Signaling technology), slug (1:1000, #C19G7, Cell signalling technology) and GAPDH (1:5000, #ABM22C5, Abgenex, India) followed by incubation with HRP tagged anti-mouse IgG secondary antibody (Abgenex) for GAPDH and HRP tagged anti-rabbit IgG secondary antibody (Abgenex) for p38, phospho-p38, p53, phospho-p53, snail and slug. The chemiluminescence signal was detected in ChemiDoc XRS + (Bio-Rad) using SuperSignal™ West Femto reagent (Thermo Scientific).
For orientation: In western blotting, separated proteins are transferred to a membrane and probed.

Data set [6] can be described thus: MTS cell viability assay in HeLa. The format is cell-based. To be noted: human, HeLa cells; HeLa, 50 μM, 18 h. The method, then:
as §1, §2, §3, §4, §5
(In general: Tetrazolium dyes change colour on reduction, which living cells bring about.)

For data set [7], the system named is HeLa cells. The experiment in a line: MTS cell viability assay in HeLa. The format is cell-based. Conditions: for IC50: Homo sapiens. The method, then:
as §1, §2, §3, §4, §5

One may read the viability as the share of living cells, or the viability signal relative to a control. In general, IC50 refers to the midpoint of a concentration-inhibition curve. Read a low IC50 as inhibition by little substance.

SMILES strings stand for the structures.

As to `Cc1cccc(C2C(C(=O)[O-])N(CCc3ccccc3)c3ccccc[c+]3N2Cc2ccccc2)c1` (stereo not drawn) [Compound 6e], the “visibility of DNA-bound compound on agarose gel under UV light” value in the data set with human genomic DNA [1] was “signal was equivalent to EtBr”. In addition, the “Hill's coefficient (nH)” value in the data set with human genomic DNA [2] is given as 1.6. The compound also displayed a viability at 18 h, 30 µM in data set [3] of 38.8%. Moreover, the Growth inhibition with HEK293 cells is 61.1%. Moreover, the “Late Apoptotic cells (FITC-AV+/PI+)” value in the data set with HeLa cells [4] (control 2.9 %) is reported as 15.6%. In addition, the “Early Apoptotic cells (FITC-AV+/PI-)” value with HeLa cells [4] (control 3.6 %) amounted to 62.5%. For the same compound, in the data set with HeLa cells [4] (control 6.5%), the “cells entered into apoptotic phase” value is listed as 78.2%. In data set [5] (dose-dependent, 0-19 µM), the E-Cadherin expression entry is on record as “increased expression of E-Cadherin” and the “expression of EMT markers (N-Cadherin, Snail, Slug)” value was “decreased expression of EMT markers”. In addition, the “phospho-P53 and phospho-P38 levels” value in data set [5] (increasing concentration 0-18 μM (6e), 0-19 μM (6j, 6n)) is “gradual increase in phospho-P53 and phospho-P38 levels”. Further, in data set [6], the viability at 18 h, 50 µM amounted to 15.2%. The “effect on HeLa cell proliferation” value with HeLa cells [7] (10 nM to 50 μM, 18 h) was “retarded HeLa cell proliferation in a dose dependent manner”. This compound registered a Cell scavenging in the data set on HeLa cells [7] (HeLa, 50 μM, 18 h) of 84.74%. The compound also yielded an IC50 with HeLa cells [7] (HeLa, values given in rebuttal letter of peer review file) of 25.4 µM. Also, the 50% inhibitory concentration (IC50) with HeLa cells [7] (MTS, 18 h, cell line not named in the sentence (HeLa implied)) was found to be 25.3 µM.

The values above are taken from article PMC9814901, “One-pot synthesis of cyclic-aminotropiminium carboxylate derivatives with DNA binding and anticancer properties” (Communications Chemistry, 2022).
